Several values for one entry are separate records, joined by “and”; a condition that tells them apart may be missing. Equal values may be shown once. Inconclusive results and toxic doses are left out. How the source made its calls: active means survival T/C of 150% or more; inactive means T/C below 125% in these data.
Test system: P388 leukemia ip, CD2F1 mice, survival T/C
Test: NCI In Vivo Anticancer Drug Screen. Data for tumor model P388 Leukemia (intraperitoneal) in CD2F1 (CDF1) mice
Conditions: endpoint: median survival time, higher = longer survival
How it was run: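 Mice carrying the transplanted tumor received test compound or vehicle. Survival was recorded in each group, and the value is the treated-group measurement divided by that of the vehicle-treated control group.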

[1] = dose: 12.5 mg/kg/injection, schedule: Q01DX009 (ip), vehicle: saline with Tween-80
[2] = dose: 25.0 mg/kg/injection, schedule: Q01DX009 (ip), vehicle: saline with Tween-80
[3] = dose: 50.0 mg/kg/injection, schedule: Q01DX009 (ip), vehicle: saline with Tween-80
[4] = dose: 100.0 mg/kg/injection, schedule: Q01DX009 (ip), vehicle: saline with Tween-80
[5] = dose: 200.0 mg/kg/injection, schedule: Q01DX009 (ip), vehicle: saline with Tween-80

Measured: T/C

C=C1C(=O)C23[C@H](O)C1CC[C@H]2[C@]12COC3(O)[C@@H](O)[C@@H]1C(C)(C)CC[C@@H]2O
inactive: dose: 6.25 mg/kg/injection, schedule: Q01DX009 (ip), vehicle: saline with Tween-80 113 % of control | dose: 8.0 mg/kg/injection, schedule: Q01DX009 (ip), vehicle: saline with Tween-80 106 % of control | dose: 9.0 mg/kg/injection, schedule: Q01DX009 (ip), vehicle: saline with Tween-80 117 % of control | [1] 104 % of control | [2] 104 % of control | dose: 27.0 mg/kg/injection, schedule: Q01DX009 (ip), vehicle: saline with Tween-80 121 % of control

O=C1c2ccccc2C(=O)c2c(NC(=O)C(F)(F)F)cccc21
inactive: dose: 12.5 mg/kg/injection, schedule: Q01DX005 (ip), vehicle: Klucel (hydroxypropylcellulose) (HPC) 96 % of control | dose: 25.0 mg/kg/injection, schedule: Q01DX005 (ip), vehicle: Klucel (hydroxypropylcellulose) (HPC) 93 % of control | dose: 50.0 mg/kg/injection, schedule: Q01DX005 (ip), vehicle: Klucel (hydroxypropylcellulose) (HPC) 87 % of control and 89 % of control

NC(=S)c1ccc(Br)cc1
inactive: dose: 50.0 mg/kg/injection, schedule: Q01DX009 (ip), vehicle: Klucel (hydroxypropylcellulose) (HPC) 97 % of control | dose: 100.0 mg/kg/injection, schedule: Q01DX009 (ip), vehicle: Klucel (hydroxypropylcellulose) (HPC) 104 % of control

Cc1ccc2cccc(C(=O)N(C)C)c2[n+]1C
inactive: dose: 31.2 micrograms/kg/injection, schedule: Q04DX002 (ip), vehicle: saline 100 % of control | dose: 62.5 micrograms/kg/injection, schedule: Q04DX002 (ip), vehicle: saline 103 % of control

O=C(/C=C/c1ccc(OCc2ccccc2)cc1)c1ccc([N+](=O)[O-])cc1
inactive: [3] 99 % of control | [4] 104 % of control | [5] 102 % of control

COc1cc2c(cc1OC)[C@H]1C(=O)c3cc4c(cc3[C@H]1N(C)C2=O)OCO4
inactive: dose: 12.5 mg/kg/injection, schedule: Q01DX005 (ip), vehicle: distilled water + Tween-80 94 % of control | dose: 25.0 mg/kg/injection, schedule: Q01DX005 (ip), vehicle: distilled water + Tween-80 96 % of control | dose: 50.0 mg/kg/injection, schedule: Q01DX005 (ip), vehicle: distilled water + Tween-80 91 % of control

CC(C)[S][Pb]([c]1ccccc1)([c]1ccccc1)[c]1ccccc1
inactive: dose: 1.25 mg/kg/injection, schedule: Q01DX009 (ip), vehicle: gum acacia 116 % of control | dose: 2.5 mg/kg/injection, schedule: Q01DX009 (ip), vehicle: gum acacia 118 % of control | dose: 5.0 mg/kg/injection, schedule: Q01DX009 (ip), vehicle: gum acacia 111 % of control | dose: 6.25 mg/kg/injection, schedule: Q04DX003 (ip), vehicle: gum acacia 97 % of control | dose: 12.5 mg/kg/injection, schedule: Q04DX003 (ip), vehicle: gum acacia 104 % of control

COC(=O)c1cc(NC(=O)Oc2ccccn2)cc(C(=O)OC)c1
inactive: dose: 50.0 mg/kg/injection, schedule: Q01DX009 (ip), vehicle: olive oil, sesame oil, peanut oil 98 % of control | dose: 100.0 mg/kg/injection, schedule: Q01DX009 (ip), vehicle: olive oil, sesame oil, peanut oil 97 % of control | dose: 200.0 mg/kg/injection, schedule: Q01DX009 (ip), vehicle: olive oil, sesame oil, peanut oil 99 % of control

Oc1ccc(/C=N/Nc2nnc(N/N=C/c3ccc(O)cc3O)c3ccccc23)c(O)c1
inactive: dose: 3.12 mg/kg/injection, schedule: Q01DX009 (ip), vehicle: saline 106 % of control | dose: 3.12 mg/kg/injection, schedule: Q01DX009 (ip), vehicle: suspension in saline 116 % of control | dose: 6.25 mg/kg/injection, schedule: Q01DX009 (ip), vehicle: saline 112 % of control | dose: 12.5 mg/kg/injection, schedule: Q01DX009 (ip), vehicle: saline 117 % of control

Cc1cc(Cl)ccc1NC(=O)Oc1nc2ccccc2o1
inactive: [1] 104 % of control and 96 % of control | [2] 99 % of control and 101 % of control | [3] 111 % of control and 96 % of control | [4] 101 % of control and 112 % of control

O=C1c2c(Cl)c(Cl)c(Cl)c(Cl)c2C(=O)N1c1ccccc1-c1ccccc1
inactive: dose: 87.5 mg/kg/injection, schedule: Q01DX009 (ip), vehicle: saline with Tween-80 97 % of control | dose: 175.0 mg/kg/injection, schedule: Q01DX009 (ip), vehicle: saline with Tween-80 97 % of control | dose: 350.0 mg/kg/injection, schedule: Q01DX009 (ip), vehicle: saline with Tween-80 97 % of control

CC(C)Nc1nc(N)nc(N)n1
inactive: [3] 100 % of control | [4] 91 % of control | [5] 96 % of control

CNC(=O)Sc1ccc(C)c(N(C)C)c1
inactive: dose: 50.0 mg/kg/injection, schedule: Q01DX005 (ip), vehicle: saline with Tween-80 111 % of control and 117 % of control | dose: 100.0 mg/kg/injection, schedule: Q01DX005 (ip), vehicle: saline with Tween-80 120 % of control

— PubChem BioAssay AID330 (DTP/NCI, 2004)
